The test system of this assay is BV-2. In words: Antiinflammatory activity in mouse BV2 cells assessed as inhibition of LPS-stimulated nitric oxide production by Griess reagent based spectrophotometric analysis. The assay is classed as functional, cell-based. Background: Griess reagent forms a coloured azo dye with nitrite.

A value given as a limit tells only on which side of the number the result lay.

`CC(=O)O[C@H]1CC(C)=C2C(=O)C=C(C)[C@@H]2[C@H]2OC(=O)[C@@H](C)[C@@H]21`: the IC50 (as a rule, the concentration at which inhibition is half-maximal) was greater than 100 µM. For `CC#Cc1cc(O)c(C(C)=O)s1` the value was 98.5 µM; for `C/C1=C\C[C@H](O)/C(C)=C/[C@H]2OC(=O)[C@H](C)[C@@H]2CC1`, 27.9 µM. Take `CC1=CC[C@@H]([C@](C)(O)[C@H]2CC[C@@]3(C)[C@@H]4C[C@@H](O)[C@H]5C(C)(C)OC(=O)C=C[C@@]56C[C@@]46CC[C@]23C)OC1=O`: the IC50 was greater than 100 µM.

As to `CC(=O)O[C@H]([C@@H]1C=C(C)C(=O)O1)[C@@H](C)C1[C@@H]2[C@@]3(O)O[C@@]4(CC[C@]12C)C(O)[C@]12OC(=O)C[C@H]1OC(C)(C)[C@@H]2CC[C@H]4C3=O` (stereo partly drawn), the 50% inhibitory concentration (IC50) was 11.9 µM. With `C/C=C(/C)C(=O)O[C@@H]1C[C@H]2C(C)(C)O[C@@H]3CC(=O)O[C@@]32C[C@@]2(O)C[C@H](O)[C@]34O[C@@]5(C=C(C)C(=O)O5)C[C@@H](C)[C@H]3C[C@@H]3O[C@@]34[C@H]12`, the IC50 was greater than 100 µM. With `CC(=O)O[C@H]1C[C@]2(C)O[C@@]23C(=O)C=C(C)C3[C@H]2OC(=O)[C@H](C)[C@H]12` (stereo partly drawn), the IC50 is 6.5 µM. Regarding `C=C1CC[C@@H](C(C)C)/C=C/C(=O)CC[C@H]1O`, the IC50 is greater than 100 µM. `CC1=C(CC[C@@H](C)O)C(C)(C)C[C@H](O)C1`: the half-maximal inhibitory concentration (IC50) was greater than 100 µM. Consider `CC(=O)O[C@H]([C@@H]1CC(C)C(=O)O1)[C@@H](C)C1[C@@H]2[C@@]3(O)O[C@@]4(CC[C@]12C)C(O)[C@]12OC(=O)C[C@H]1OC(C)(C)[C@@H]2CC[C@H]4C3=O` (stereo partly drawn), for which the IC50 came out at 10.1 µM.

Take `CC#Cc1ccc(C(=O)O)s1`: the IC50 stood at 79.5 µM. Consider `CC1=CC(=O)[C@]23O[C@@]2(C)C[C@H](O)[C@@H]2[C@H](OC(=O)[C@@H]2C)[C@@H]13`, for which the IC50 was greater than 100 µM. Regarding `O=c1c(O)c(-c2ccc(O)c(O)c2)oc2cc(O)cc(O)c12` [QUERCETIN], the concentration for half-maximal inhibition (IC50) was 16.3 µM.
